# “Also recorded” adds a separate entry of the source.
# Legend:
# [1] = Crystalline form transformation from Form III to Form II at room temperature; assay type: physicochemical; conditions: FIG. 5
# Procedure: (§1) X-ray Powder Diffraction (XRPD) Analysis: The XRPD patterns were collected on a Bruker D2 PHASER diffractometer with fixed divergence slits and ID LYNXEYE detector. The samples (ca. 100 mg) were flatly placed on a sample holder. The prepared samples were analyzed over a […] from 5° to 50° with step size of 0.02 degrees and step time of 1 second using CuKα radiation at a power of 10 mA and 30 kV. The CuKβ radiation was removed by a divergent beam nickel filter.
# The Beraprost-314d crystal Form III (0.5 g, from Example 5) was placed in a glass vial, and isothermal at room temperature for 1 day.
# [2] = Storage stability of the crystalline form (crystalline form change, degradation products); assay type: physicochemical; conditions: six months
# Procedure: as §1
Substance,"crystalline form transformation ([1]; glass vial, isothermal at room temperature for 1 day)",time until conversion to Beraprost-314d crystal Form II ([1]; keeping at room temperature),"stability during storage (other crystalline forms, degraded products) ([2]; normal storage temperatures (about −20° C.))",stability during storage (other crystalline forms) ([2]; room temperature (about 20 to 25° C.))
Beraprost-314d [Beraprost-314d crystal Form III],completely converted to Beraprost-314d crystal Form II,≤ 1 days,–,–
Beraprost-314d [Beraprost-314d crystal Form II],–,–,no other crystalline forms or degraded products of impurities; also recorded: good stability with no other crystalline forms,good stability with no other crystalline forms
